Target: SHV-128 (Enterobacter cloacae, UniProt D5LIR5)
Experiment: biochemical

Sequence of SHV-128 (D5LIR5 entry or part of it): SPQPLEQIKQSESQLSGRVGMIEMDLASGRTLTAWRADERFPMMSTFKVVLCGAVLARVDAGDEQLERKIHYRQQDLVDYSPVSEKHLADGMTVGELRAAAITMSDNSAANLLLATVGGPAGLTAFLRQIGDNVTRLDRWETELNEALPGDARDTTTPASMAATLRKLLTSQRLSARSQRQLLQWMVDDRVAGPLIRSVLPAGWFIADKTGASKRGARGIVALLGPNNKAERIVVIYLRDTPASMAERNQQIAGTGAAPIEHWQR

Structure (SMILES): O=C(O)[C@H]1/C(=C/CO)O[C@@H]2CC(=O)N21 [clavulanic acid]
- IC50: 4.2 µM
